*1 amine or outer side, *2 acyl side, *3 side chain or, on linkers, in order; H or OH if unused. Where a SMILES comes first, the peptide text is derived from it. Side-chain parts run from the residue outwards. [ ]: non-standard residue; d: D form. The star is where a group is joined. Isobutyryl(2-(3-CN-5-F-Ph)) = CC(C)(C(=O)*)c1cc(F)cc(C#N)c1; C20 diacid = O=C(O)CCCCCCCCCCCCCCCCCCC(=O)*; C18 diacid = O=C(O)CCCCCCCCCCCCCCCCC(=O)*; αMePhe(2-F) = C[C@](N)(Cc1ccccc1F)C(=O)O; β2hAla(2S) = C[C@@H](CN[*:1])C(=O)[*:2]; γGlu = O=C(O)[C@H](CCC(=O)[*:2])N[*:1]; X43 = O=C1CCC(C(=O)*)(c2ccccc2)CN1; X18 = O=C(C1(c2cccc(F)c2)CCCC1)*; AEEA = NCCOCCOCC(=O)O; Aib = CC(C)(N)C(=O)O; CO = O=C([*:1])[*:2]; X12 = Fc1cccc(N*)c1; GABA = NCCCC(=O)O; βAla = NCCC(=O)O
Legend:
Format in all cases: cell-based
[1] = molecular target: T1, GLP-1 receptor (Homo sapiens, UniProt P43220); experiment: HitHunter cAMP assay, GLP-1 receptor; conditions: for EC50: CHO cells stably expressing human GLP-1 receptor, cAMP accumulation, 30 min, read-out: EC50 GLP-1R; for Emax: CHO cells, cAMP, normalized to maximum signal from GLP-1 (high) and DMSO (low), read-out: Emax GLP-1R
T1 sequence (P43220 24-463): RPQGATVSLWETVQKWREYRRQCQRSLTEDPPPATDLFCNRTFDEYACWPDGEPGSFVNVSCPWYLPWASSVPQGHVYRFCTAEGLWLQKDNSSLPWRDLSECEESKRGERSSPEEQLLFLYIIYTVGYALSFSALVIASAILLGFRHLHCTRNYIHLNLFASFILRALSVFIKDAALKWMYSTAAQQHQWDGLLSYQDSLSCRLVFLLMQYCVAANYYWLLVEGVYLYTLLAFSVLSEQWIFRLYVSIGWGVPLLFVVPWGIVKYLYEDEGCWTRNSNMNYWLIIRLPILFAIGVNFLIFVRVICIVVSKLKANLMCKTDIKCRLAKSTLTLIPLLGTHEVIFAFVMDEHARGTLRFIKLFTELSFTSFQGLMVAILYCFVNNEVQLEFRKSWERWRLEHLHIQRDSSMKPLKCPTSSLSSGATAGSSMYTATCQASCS

[2] = molecular target: T2, GIP receptor (Homo sapiens, UniProt P48546); experiment: HitHunter cAMP assay, GIP receptor; conditions: for EC50: CHO cells stably expressing GIP receptor, cAMP accumulation, 30 min, read-out: EC50 GIP-1R; for Emax: CHO cells, cAMP, normalized to maximum signal from GIP (high) and DMSO (low), read-out: Emax GIP-1R
T2 sequence (P48546 22-466): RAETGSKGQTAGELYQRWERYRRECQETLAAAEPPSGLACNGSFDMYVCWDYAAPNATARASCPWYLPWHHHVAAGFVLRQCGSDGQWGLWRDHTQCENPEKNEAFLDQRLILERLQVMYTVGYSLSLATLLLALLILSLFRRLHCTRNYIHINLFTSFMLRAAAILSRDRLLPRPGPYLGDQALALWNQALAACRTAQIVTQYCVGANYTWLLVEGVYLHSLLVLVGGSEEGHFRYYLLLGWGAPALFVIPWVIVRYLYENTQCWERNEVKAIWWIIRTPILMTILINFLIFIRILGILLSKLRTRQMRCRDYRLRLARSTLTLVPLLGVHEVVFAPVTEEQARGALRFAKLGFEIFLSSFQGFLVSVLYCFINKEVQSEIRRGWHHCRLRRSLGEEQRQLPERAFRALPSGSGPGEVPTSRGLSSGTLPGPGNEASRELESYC

[3] = molecular target: T2, GIP receptor; experiment: PathHunter β-arrestin assay, GIP receptor; parameters: host or cells: PathHunter CHO-K1 GIPR β-Arrestin Cell Line; conditions: β-arrestin-2 recruitment, PathHunter CHO-K1 GIPR β-Arrestin Cell Line, 90 min at 37° C.; normalized to GIP; read-out: GIPR β Arrestin EC50
[4] = molecular target: T1, GLP-1 receptor; experiment: PathHunter β-arrestin assay, GLP-1 receptor; parameters: host or cells: PathHunter CHO-K1 GLP1R β-Arrestin Cell Line; conditions: β-arrestin-2 recruitment, PathHunter CHO-K1 GLP1R β-Arrestin Cell Line, 90 min at 37° C.; normalized to GLP-1; read-out: GLP-1R β Arrestin EC50

| Compound | EC50 [1] [nM] | Emax [1] [%] | EC50 [2] [nM] | Emax [2] [%] | EC50 [3] [nM] | EC50 [4] [nM] |
| --- | --- | --- | --- | --- | --- | --- |
| CC[C@H](C)[C@H](NC(=O)[C@H](CC(C)C)NC(=O)[C@H](Cc1c[nH]c2ccccc12)NC(=O)[C@H](CCC(N)=O)NC(=O)[C@@H](NC(=O)[C@H](Cc1ccccc1)NC(=O)[C@H](C)NC(=O)[C@H](CCCCNC(=O)COCCOCCNC(=O)COCCOCCNC(=O)CC[C@H](NC(=O)CCCCCCCCCCCCCCCCCCC(=O)O)C(=O)O)NC(=O)[C@H](CCC(N)=O)NC(=O)[C@H](C)NC(=O)[C@@H](NC(=O)[C@H](CCCCN)NC(=O)[C@H](CC(=O)O)NC(=O)[C@H](CC(C)C)NC(=O)C(C)(C)NC(=O)[C@@H](NC(=O)[C@H](CO)NC(=O)[C@H](Cc1ccc(O)cc1)NC(=O)[C@H](CC(=O)O)NC(=O)[C@H](CO)NC(=O)[C@@H](NC(=O)[C@H](Cc1ccccc1)NC(=O)[C@@H](NC(=O)CNC(=O)[C@@H](CC(=O)O)NC(=O)CCCNC(=O)C(C)(C)c1cc(F)cc(C#N)c1)[C@@H](C)O)[C@@H](C)O)[C@@H](C)CC)[C@@H](C)CC)C(C)C)C(=O)N[C@@H](C)C(=O)NCC(=O)NCC(=O)N1CCC[C@H]1C(=O)N[C@@H](CO)C(=O)N[C@@H](CO)C(=O)NCC(=O)N[C@@H](C)C(=O)N1CCC[C@H]1C(=O)N1CCC[C@H]1C(=O)N1CCC[C@H]1C(=O)N[C@@H](CO)C(N)=O [Compound 120] ({Isobutyryl(2-(3-CN-5-F-Ph))-GABA}-[dD]GTFTSDYSI[Aib]LDKIAQK([AEEA-AEEA-γGlu-C20 diacid])AFVQWLIAGGPSSGAPPPS-NH2) | 10 to 100 | 104 | 100 to 1000 | 40 | > 1000 | > 1000 |
| CC[C@H](C)[C@H](NC(=O)[C@H](CC(C)C)NC(=O)[C@H](Cc1c[nH]c2ccccc12)NC(=O)[C@H](CCC(N)=O)NC(=O)[C@@H](NC(=O)[C@H](Cc1ccccc1)NC(=O)[C@H](C)NC(=O)[C@H](CCCCNC(=O)COCCOCCNC(=O)COCCOCCNC(=O)CC[C@H](NC(=O)CCCCCCCCCCCCCCCCC(=O)O)C(=O)O)NC(=O)[C@H](CCC(N)=O)NC(=O)[C@H](C)NC(=O)[C@@H](NC(=O)[C@H](CCCCN)NC(=O)[C@H](CC(=O)O)NC(=O)[C@H](CC(C)C)NC(=O)C(C)(C)NC(=O)[C@@H](NC(=O)[C@H](CO)NC(=O)[C@H](Cc1ccc(O)cc1)NC(=O)[C@H](CC(=O)O)NC(=O)[C@H](CO)NC(=O)[C@@H](NC(=O)[C@H](Cc1ccccc1)NC(=O)[C@@H](NC(=O)CNC(=O)[C@H](CCC(=O)O)NC(=O)CCNC(=O)C(C)(C)c1cc(F)cc(C#N)c1)[C@@H](C)O)[C@@H](C)O)[C@@H](C)CC)[C@@H](C)CC)C(C)C)C(=O)N[C@@H](C)C(=O)NCC(=O)NCC(=O)N1CCC[C@H]1C(=O)N[C@@H](CO)C(=O)N[C@@H](CO)C(=O)NCC(=O)N[C@@H](C)C(=O)N1CCC[C@H]1C(=O)N1CCC[C@H]1C(=O)N1CCC[C@H]1C(=O)N[C@@H](CO)C(N)=O [Compound 106] ({Isobutyryl(2-(3-CN-5-F-Ph))-βAla}-EGTFTSDYSI[Aib]LDKIAQK([AEEA-AEEA-γGlu-C18 diacid])AFVQWLIAGGPSSGAPPPS-NH2) | 0.1 to 1 | 97 | 10 to 100 | 98 | > 1000 | > 1000 |
| CC[C@H](C)[C@H](NC(=O)[C@H](CO)NC(=O)[C@H](CCCCNC(=O)COCCOCCNC(=O)COCCOCCNC(=O)CC[C@H](NC(=O)CCCCCCCCCCCCCCCCCCC(=O)O)C(=O)O)NC(=O)[C@H](CC(=O)O)NC(=O)[C@H](CO)NC(=O)[C@@H](NC(=O)[C@H](Cc1ccccc1)NC(=O)[C@@H](NC(=O)CNC(=O)[C@H](CCC(=O)O)NC(=O)CCNC(=O)C1(c2ccccc2)CCC(=O)NC1)[C@@H](C)O)[C@@H](C)O)C(=O)N[C@@H](Cc1ccc(O)cc1)C(=O)N[C@@H](CC(C)C)C(=O)N[C@@H](CC(=O)O)C(=O)N[C@@H](CCCCN)C(=O)N[C@@H](CCC(N)=O)C(=O)N[C@@H](C)C(=O)N[C@@H](C)C(=O)NC(C)(C)C(=O)N[C@@H](CCC(=O)O)C(=O)N[C@@H](Cc1ccccc1)C(=O)N[C@H](C(=O)N[C@@H](CC(N)=O)C(=O)N[C@@H](Cc1c[nH]c2ccccc12)C(=O)N[C@@H](CC(C)C)C(=O)N[C@@H](CC(C)C)C(=O)N[C@@H](C)C(=O)NCC(=O)NCC(=O)N1CCC[C@H]1C(=O)N[C@@H](CO)C(=O)N[C@@H](CO)C(=O)NCC(=O)N[C@@H](C)C(=O)N1CCC[C@H]1C(=O)N1CCC[C@H]1C(=O)N1CCC[C@H]1C(=O)N[C@@H](CO)C(N)=O)C(C)C (stereo partly drawn) [Compound 153] ({X43-βAla}-EGTFTSDK([AEEA-AEEA-γGlu-C20 diacid])SIYLDKQAA[Aib]EFVNWLLAGGPSSGAPPPS-NH2) | 0.1 to 1 | 101 | 1 to 10 | 105 | > 1000 | > 1000 |
| CC[C@H](C)[C@H](NC(=O)[C@H](CC(C)C)NC(=O)[C@H](Cc1c[nH]c2ccccc12)NC(=O)[C@H](CCC(N)=O)NC(=O)[C@@H](NC(=O)[C@H](Cc1ccccc1)NC(=O)[C@H](C)NC(=O)[C@H](CCCCNC(=O)COCCOCCNC(=O)COCCOCCNC(=O)CC[C@H](NC(=O)CCCCCCCCCCCCCCCCCCC(=O)O)C(=O)O)NC(=O)[C@H](CCC(N)=O)NC(=O)[C@H](C)NC(=O)[C@@H](NC(=O)[C@H](CCCCN)NC(=O)[C@H](CC(=O)O)NC(=O)[C@H](CC(C)C)NC(=O)C(C)(C)NC(=O)[C@@H](NC(=O)[C@H](CO)NC(=O)[C@H](Cc1ccc(O)cc1)NC(=O)[C@H](CC(=O)O)NC(=O)[C@H](CO)NC(=O)[C@@H](NC(=O)[C@H](Cc1ccccc1)NC(=O)[C@@H](NC(=O)CNC(=O)[C@H](CCC(=O)O)NC(=O)[C@@H](C)CNC(=O)C1(c2cccc(F)c2)CCCC1)[C@@H](C)O)[C@@H](C)O)[C@@H](C)CC)[C@@H](C)CC)C(C)C)C(=O)N[C@@H](C)C(=O)NCC(=O)NCC(=O)N1CCC[C@H]1C(=O)N[C@@H](CO)C(=O)N[C@@H](CO)C(=O)NCC(=O)N[C@@H](C)C(=O)N1CCC[C@H]1C(=O)N1CCC[C@H]1C(=O)N1CCC[C@H]1C(=O)N[C@@H](CO)C(N)=O [Compound 180] (X18-[β2hAla(2S)]EGTFTSDYSI[Aib]LDKIAQK([AEEA-AEEA-γGlu-C20 diacid])AFVQWLIAGGPSSGAPPPS-NH2) | 0.1 to 1 | 101 | 0.1 to 1 | 105 | < 1000 | > 1000 |
| CC[C@H](C)[C@H](NC(=O)[C@H](CC(C)C)NC(=O)[C@H](Cc1c[nH]c2ccccc12)NC(=O)[C@H](CCC(N)=O)NC(=O)[C@@H](NC(=O)[C@H](Cc1ccccc1)NC(=O)[C@H](C)NC(=O)[C@H](CCCCNC(=O)COCCOCCNC(=O)COCCOCCNC(=O)CC[C@H](NC(=O)CCCCCCCCCCCCCCCCCCC(=O)O)C(=O)O)NC(=O)[C@H](CCC(N)=O)NC(=O)[C@H](C)NC(=O)[C@@H](NC(=O)[C@H](CCCCN)NC(=O)[C@H](CC(=O)O)NC(=O)[C@H](CC(C)C)NC(=O)C(C)(C)NC(=O)[C@@H](NC(=O)[C@H](CO)NC(=O)[C@H](Cc1ccc(O)cc1)NC(=O)[C@H](CC(=O)O)NC(=O)[C@H](CO)NC(=O)[C@@H](NC(=O)[C@](C)(Cc1ccccc1F)NC(=O)[C@@H](NC(=O)CNC(=O)[C@H](CCC(=O)O)NC(=O)CCCNC(=O)Nc1cccc(F)c1)[C@@H](C)O)[C@@H](C)O)[C@@H](C)CC)[C@@H](C)CC)C(C)C)C(=O)N[C@@H](C)C(=O)NCC(=O)NCC(=O)N1CCC[C@H]1C(=O)N[C@@H](CO)C(=O)N[C@@H](CO)C(=O)NCC(=O)N[C@@H](C)C(=O)N1CCC[C@H]1C(=O)N1CCC[C@H]1C(=O)N1CCC[C@H]1C(=O)N[C@@H](CO)C(N)=O [Compound 282] ({X12-CO-GABA}-EGT[αMePhe(2-F)]TSDYSI[Aib]LDKIAQK([AEEA-AEEA-γGlu-C20 diacid])AFVQWLIAGGPSSGAPPPS-NH2) | 0.1 to 1 | 92 | 10 to 100 | 90 | > 1000 | > 1000 |

Source: patent US12281149B2, “Modulators of G-protein coupled receptors” (priority 2021, dated 2025)
